Assay results published in patent US20110251258A1, “RNAI CONSTRUCTS AND USES THEREOF” (RXi Pharmaceuticals Corporation, priority 2008, published 2011).

Assays:
PPIB = details: for PPIB gene silencing activity (in words): transfection assay as in Example I; for EC50: PPIB expression, HEK293, 48 hours after transfection, dose response with RISC-Free filler; for relative expression of PPIB remaining after transfection: HEK293, 48 hour incubation, even at 10 nM, compared to negative control 10837 and UTC; for activity at sub-nano molar concentrations / target gene expression at about 0.1 nM: HEK293, with RISC-Free filler; for EC50 fold higher than that of the 25-mer dsRNA 10460: from the EC50 table of Example III
From the text: Positive and negative controls were also included. As shown and described in FIG. 4, construct prepared from single-stranded polynucleotide 10837 (SEQ ID NO: 6) was used as a negative control. […] This structure, denoted as construct 10460 (5′P-mCmUmCm[…]mAmAmAmA-3′, SEQ ID NO: 7) in this example, contains 2′-O-methyl modified bases on 4 of the outermost positions at both ends of the sequence.
(§1) All constructs were transfected into HEK293 cells using the LIPOFECTAMINE™ RNAiMAX reagent (Invitrogen Corp., Carlsbad, Calif.) according to manufacture's instructions. In brief, RNA was diluted to a 12× concentration and then combined with a 12× concentration of LIPOFECTAMINE™ RNAiMAX to complex. The RNA and transfection reagent were allowed to complex at room temperature for 20 minutes to yield a 6× concentration. While complexing, HEK293 cells were washed, trypsinized and counted. The cells were diluted to a concentration recommended by the manufacturer which was at 1×10^5 cells/ml. When RNA has completed complexing with the RNAiMAX transfection reagent, 20 μl of the complexes were added to the appropriate well of the 96-well plate in triplicate. Cells were added to each well (100 μl volume) to make the final cell count per well at 1×10^4 cells/well. The volume of cells diluted the 6× concentration of complex to 1× which was equal to 50, 25, or 10 nM. Cells were incubated for 48 hours under normal growth conditions. After 48 hour incubation, cells were lysed and gene silencing activity was measured using the Panomics […]™ assay which employs bDNA hybridization technology. The assay was carried out according to manufacturer's instructions.
Active RNAi construct stocks at 100 or 10 μM were used to make a 3 μM working dilution in RNA Buffer (1:33.333 dilution) by mixing 30 μl of a 10 μM stock+70 μl RNA Buffer. Diluted RNAi compound plates were prepared in a 96 well plate of 0.2 mL PCR tubes as follows:
a. 50 nM Condition (dilute RNA compound to 12× or to 600 nM in OptiMEM, Reduced Serum Medium, Invitrogen Corp., Carlsbad, Calif.): • i. Add 80 μl of OptiMEM to each well • ii. Add 20 μl of working stock RNAi compound (3 μM) to each well with OptiMEM
b. 25 nM Condition (dilute RNA to make 12× or to 300 nM in OptiMEM): • i. Add 50 μl of OptiMEM to each well • ii.
c. 10 nM Condition (dilute RNA compound to 12× or to 120 nM in OptiMEM): • i. Add 30 μl of OptiMEM to each well • ii.
A bulk amount of diluted RNAiMAX and LIPOFECTAMINE™ were made as follows:
a. 1,470 μl Opti-MEM+30 μl RNAiMAX
c. Combine RNAiMAX and Opti-MEM, Lipofectamine and Opti-MEM, mix gently.
Diluted RNAiMAX or LIPOFECTAMINE™ (35 μl each) was added to each 0.2 ml PCR well. Then, 35 μl of diluted RNAi compound from the RNA plate (above) was also added to each well. Each well contained enough for duplicates at a given dose. Each reaction mixture was gently mixed by pipetting up and down 3 times. The mixture was allowed to complex for at least 15 minutes at room temperature. Meanwhile, a suspension of cells at 1×10^5 cells/ml was prepared. After 15 minutes, 20 μl of complexed RNAi was added to each tissue-culture treated 96-well using a multi-channel pipettor. The prepared cell suspension was added to each reaction at a final volume of 1×10^4 cells (100 μl of cell suspension) and allowed to incubate for 48 hours at 37° C., 10% CO2.
Constructs 10460 (SEQ ID NO: 7, see above, a 25-bp double-stranded RNA with blunt ends) and 10167.2 (a 21-bp double-stranded RNA) were included as positive controls. Untransfected control (UTC) was included as a negative control. Transfections were performed as in Example I or according to the manufactures' recommendation. Each construct (except for the UTC) was transfected at a final concentration of about 50 nM, 25 nM, 10 nM, 5 nM, and 1 nM.
The RISC-Free filler is a commercially available control.

MAP4K4 = system: MAP4K4
Description: as §1

| Substance | PPIB gene silencing activity (in words) (PPIB) | PPIB silencing potency compared with another construct (PPIB) | EC50 (PPIB) [pM] | also measured |
| --- | --- | --- | --- | --- |
| SS: G.G.A.A.A.G.A.C.U.G.U.U.C.C.A.A. A.A.A AS: U.U.U.U.U.G.G.A.A.C.A.G.U. [compound 12000, reference compound] | essentially inactive | – | – | – |
| SS: P.mC.mU.mC.mU.U.C.G.G.A.A.A.G. A.C.U.G.U.U.C.C.A.mA.mA.mA.mA AS: U.U.U.U.U.G.G.A.A.C.A.G.U.C.U.U. U.C.C.G.A.A.G.A.G [compound 10460, reference compound] | – | more potent than the dsRNA construct 10463 | 14 | – |
| U.A.G.A.C.U.U.C.C.A.C.A.G.A.I.I.U. I.I.A.A.G.U.C.U.A [compound 11993] | – | – | – | MAP4K4 gene silencing activity (in words) (MAP4K4): ineffective |
| U.U.A.C.A.C.G.A.U.G.G.A.A.U.U.U. G.C.U.C.C.A.U.C.G.U.G.U.A.A [compound 12004] | – | less effective | – | – |
| U.U.A.C.A.C.G.A.U.G.G.A.A.U.U.U. G.C.U.U.U.C.C.A.U.C.G.U.G.U.A.A. [compound 12003] | – | less effective | – | – |
| U.U.U.U.U.G.G.A.A.C.A.G.U.C.U.U. U.C.C.A.C.U.G.U.U.C.C.A.A.A.A.A [compound 11975] | – | more potent that those designed based on the 10463 sequence (12003 and 12004) | – | – |
| U.U.U.U.U.G.G.A.A.C.A.G.U.C.U.U. U.C.C.U.G.U.U.C.C.A.A.A.A.A [compound 11976] | – | more potent that those designed based on the 10463 sequence (12003 and 12004) | – | – |
| UUUUUGGAACAGUCUUUCCACUGUUCCAAAAA [compound 10833] | can inhibit PPIB expression | – | 599 | relative expression of PPIB remaining after transfection (PPIB): dramatically decrease PPIB expression; activity at sub-nano molar concentrations (PPIB): remained partially active; target gene expression at about 0.1 nM (PPIB): at least negative control level; EC50 fold higher than that of the 25-mer dsRNA 10460 (PPIB): about 60 fold |
| UUUUUGGAACAGUCUUUCCUGUUCCAAAAA [compound 10834] | can inhibit PPIB expression | – | 1540 | relative expression of PPIB remaining after transfection (PPIB): dramatically decrease PPIB expression; activity at sub-nano molar concentrations (PPIB): remained partially active; target gene expression at about 0.1 nM (PPIB): at least negative control level; EC50 fold higher than that of the 25-mer dsRNA 10460 (PPIB): about 110 fold |
